This passage reports MIC results from patent publication US20240315992A1, “AMINOXY ACID-BASED ANTIBACTERIAL COMPOUNDS AND METHODS THEREOF” (The University of Hong Kong, priority 2023, published 2024).

The structures appear in SMILES notation. Values after ≈ are worked out from the molar mass of the structure shown.

This assay has as its system multidrug resistant Staphylococcus aureus Mu3. Put plainly: MIC by CLSI broth micro-dilution, MRSA Mu3. In kind it is cell-based. The note with it: MRSA, CLSI broth micro-dilution, CAMH, read-out: Minimum inhibitory concentration (μM) in MRSA Mu3. As for the experimental part: Aminoxy acids were synthesized by the standard peptide coupling procedures. Minimum inhibitory concentration was determined using CLSI broth micro-dilution method in 96-wells microtitre plates. Minimum inhibitory concentration is defined as the lowest concentration of the compound that inhibits visible growth of the bacteria. All experiments were performed three times. 24 compounds including aminoxy acid monomers and dipeptides have been identified to show toxicity against multidrug resistant Staphylococcus aureus Mu3 and summarized in Table 1. The minimum inhibitory concentration of compound 8 and compound 35 on other gram-positive bacteria was also evaluated and summarized in Table 2. […] As shown in FIGS. 3A-3B there are no observable hemolysis for compound 8 and compound 35 towards human red blood cell.
Bacteria were streaked from the glycerol stock into BHI agar and were incubated overnight. Single colony was picked for the overnight culture in cation-adjusted Mueller Hinton broth (CAMH), LB or BHI. The overnight culture was sub-cultured and regrew to exponential phase for the experiment.
MIC was determined by CLSI broth micro-dilution method in 96-wells microtitre plates. For compounds dissolved in water, 100 μL of 2× testing concentration was added to the first well of each column, followed by two-fold serial dilution for successive wells with 50 μL medium. For chemical compounds dissolved in DMSO, the compounds were two-fold serial diluted by DMSO in a DMSO-compatible 96-well plate. 1 μL of compound in DMSO was transferred into 96-wells microtitre plate containing 50 μL medium to give 2× testing concentration. An overnight culture of bacteria was grown into exponential phase. The bacteria culture was diluted to 1×10^6 CFU/mL and 50 μL of diluted culture were added into each well. The test plates were kept in a 37° C. incubator overnight. Optical density was recorded by DTX 880 multimode detector (Beckman Coulter, California, US). MIC is defined as the lowest concentration of the compound that inhibits visible growth of bacteria. Biological replicates were performed. CAMH was used for bacteria culture and MIC test except S. pneumoniae, L. monocytogenes, E. faecalis and M. smegmatis for which BHI was used as culture medium
In the case of `CC(C)C[C@H](ONC(=O)[C@@H](COCc1ccccc1)ONC(=O)c1cc(C(F)(F)F)cc(C(F)(F)F)c1)C(=O)Nc1ccc(F)cc1` [Compound 36], the MIC was determined as 3.13 µM (≈ 2.11 µg/mL).

For the molecule `CC(C)C[C@H](ONC(=O)[C@@H](COCc1ccccc1)ONC(=O)c1cc(C(F)(F)F)cc(C(F)(F)F)c1)C(=O)OC(C)(C)C` [Compound 5], the MIC was over 12.5 µM.

Regarding `CC(C)C[C@H](ONC(=O)[C@@H](COCc1ccccc1)ONC(=O)c1ccccc1)C(=O)Nc1ccc2c(c1)OC(F)(F)O2` [Compound 44], the MIC is over 12.5 µM.

Turning to `NCCCC[C@@H](ONC(=O)[C@@H](COCc1ccccc1)ONC(=O)c1cc(C(F)(F)F)cc(C(F)(F)F)c1)C(=O)Nc1ccccc1` [Compound 20], the MIC was over 12.5 µM.

For the molecule `CC(C)C[C@H](ONC(=O)[C@@H](COCc1ccccc1)ONC(=O)c1ccc[nH]1)C(=O)Nc1ccc2c(c1)OC(F)(F)O2` [Compound 51], the MIC was over 12.5 µM.

For the molecule `CC(C)C[C@H](ONC(=O)[C@@H](COCc1ccccc1)ONC(=O)C(C)(C)C)C(=O)Nc1ccc2c(c1)OC(F)(F)O2` [Compound 42], the MIC was over 12.5 µM.

On to `O=C(NO[C@H](COCc1ccccc1)C(=O)NO[C@H](CO)C(=O)Nc1ccccc1)c1cc(C(F)(F)F)cc(C(F)(F)F)c1` [Compound 15], for which the MIC was over 12.5 µM.

Take `CC(C)C[C@H](ONC(=O)[C@@H](COCc1ccccc1)ONC(=O)c1cc(C(F)(F)F)cc(C(F)(F)F)c1)C(=O)Nc1cncnc1` [Compound 27]: the MIC was over 12.5 µM.

Consider `CC(C)C[C@H](ONC(=O)[C@@H](COCc1ccccc1)ONC(=O)c1cc(C(F)(F)F)cc(C(F)(F)F)c1)C(=O)N1CCOCC1` [Compound 32], for which the MIC was over 12.5 µM.

For the molecule `O=C(CONC(=O)[C@@H](COCc1ccccc1)ONC(=O)c1cc(C(F)(F)F)cc(C(F)(F)F)c1)Nc1ccccc1` [Compound 16], the MIC was over 12.5 µM.

Regarding `CC(C)C[C@@H](ONC(=O)[C@H](COCc1ccccc1)ONC(=O)c1cc(C(F)(F)F)cc(C(F)(F)F)c1)C(=O)Nc1ccccc1` [Compound 7], the MIC worked out at 3.13 µM (≈ 2.05 µg/mL).

With `O=C(NO[C@H](COCc1ccccc1)C(=O)NO[C@H](COCc1ccccc1)C(=O)Nc1ccccc1)c1cc(C(F)(F)F)cc(C(F)(F)F)c1` [Compound 12], the MIC stood at 3.13 µM (≈ 2.25 µg/mL).

Regarding `CC(C)C[C@H](ONC(=O)[C@@H](COCc1ccccc1)ONC(=O)c1cc(C(F)(F)F)cc(C(F)(F)F)c1)C(=O)Nc1ccc2c(c1)OCO2` [Compound 34], the MIC came out at 6.25 µM (≈ 4.37 µg/mL).

With `CC(C)C[C@H](ONC(=O)[C@@H](COCc1ccccc1)ONC(=O)c1ccc(F)cc1)C(=O)Nc1ccc2c(c1)OC(F)(F)O2` [Compound 47], the MIC is over 12.5 µM.

Regarding `CC(C)C[C@H](ONC(=O)[C@@H](COCc1ccccc1)ONC(=O)c1c(F)cccc1F)C(=O)Nc1ccc2c(c1)OC(F)(F)O2` [Compound 48], the MIC was over 12.5 µM.

For the molecule `CC(C)CNC(=O)[C@H](CC(C)C)ONC(=O)[C@@H](COCc1ccccc1)ONC(=O)c1cc(C(F)(F)F)cc(C(F)(F)F)c1` [Compound 24], the MIC is over 12.5 µM.

Consider `CC(C)C[C@H](ONC(=O)[C@@H](COCc1ccccc1)ONC(=O)c1cc(C(F)(F)F)cc(C(F)(F)F)c1)C(=O)Nc1ccc2ccccc2c1` [Compound 39], for which the MIC was determined as 1.56 µM (≈ 1.1 µg/mL).

With `C[C@@H](ONC(=O)[C@@H](COCc1ccccc1)ONC(=O)c1cc(C(F)(F)F)cc(C(F)(F)F)c1)C(=O)Nc1ccccc1` [Compound 17], the MIC is over 12.5 µM.

As to `CC(C)C[C@H](ONC(=O)[C@@H](COCc1ccccc1)ONC(=O)C12CC3CC(CC(C3)C1)C2)C(=O)Nc1ccc2c(c1)OC(F)(F)O2` [Compound 43], the MIC is over 12.5 µM.

On to `CC(C)C[C@H](NC(=O)[C@@H](COCc1ccccc1)ONC(=O)c1cc(C(F)(F)F)cc(C(F)(F)F)c1)C(=O)Nc1ccccc1` [Compound 56], for which the MIC was found to be 6.25 µM (≈ 4 µg/mL).

Consider `CC(C)C[C@H](ONC(=O)[C@@H](COCc1ccccc1)ONC(=O)c1ccc2ccccc2c1)C(=O)Nc1ccc2c(c1)OC(F)(F)O2` [Compound 46], for which the MIC was over 12.5 µM.

As to `CC(C)C[C@H](ONC(=O)[C@@H](COCc1ccccc1)ONC(=O)c1cc(C(F)(F)F)cc(C(F)(F)F)c1)C(=O)NOc1ccccc1` [Compound 41], the MIC is over 12.5 µM.

As for `Cc1cc(C)cc(C(=O)NO[C@H](COCc2ccccc2)C(=O)NO[C@@H](CC(C)C)C(=O)Nc2ccc3c(c2)OC(F)(F)O3)c1` [Compound 45], the MIC is over 12.5 µM.

As to `CC(C)C[C@H](ONC(=O)[C@@H](COCc1ccccc1)ONC(=O)c1cc(C(F)(F)F)cc(C(F)(F)F)c1)C(=O)Nc1ccc2cc[nH]c2c1` [Compound 23], the MIC was over 12.5 µM.

Take `CC(C)(C)OC(=O)C[C@@H](ONC(=O)[C@@H](COCc1ccccc1)ONC(=O)c1cc(C(F)(F)F)cc(C(F)(F)F)c1)C(=O)Nc1ccccc1` [Compound 14]: the MIC came out at 3.13 µM (≈ 2.23 µg/mL).

Consider `CC(C)C[C@H](ONC(=O)[C@@H](COCc1ccccc1)ONC(=O)c1cc(C(F)(F)F)cc(C(F)(F)F)c1)C(=O)Nc1nccs1` [Compound 21], for which the MIC is over 12.5 µM.

For the molecule `CC(C)C[C@H](ONC(=O)[C@@H](COCc1ccccc1)ONC(=O)c1cc(C(F)(F)F)cc(C(F)(F)F)c1)C(=O)NC12CC3CC(CC(C3)C1)C2` [Compound 26], the MIC is 6.25 µM (≈ 4.46 µg/mL).

On to `O=C(NO[C@H](COCc1ccccc1)C(=O)NO[C@H](Cc1c[nH]c2ccccc12)C(=O)Nc1ccccc1)c1cc(C(F)(F)F)cc(C(F)(F)F)c1` [Compound 10], for which the MIC worked out at 6.25 µM (≈ 4.55 µg/mL).

For `CC(C)C[C@H](ONC(=O)[C@@H](COCc1ccccc1)ONC(=O)c1cc(C(F)(F)F)cc(C(F)(F)F)c1)C(=O)NC1CC1` [Compound 28], the MIC was over 12.5 µM.

As for `CC(C)C[C@H](ONC(=O)[C@@H](COCc1ccccc1)ONC(=O)c1cc(C(F)(F)F)cc(C(F)(F)F)c1)C(=O)Nc1cccc2cc[nH]c12` [Compound 25], the MIC was 6.25 µM (≈ 4.34 µg/mL).

Take `CC(C)C[C@H](ONC(=O)[C@@H](COCc1ccccc1)ONC(=O)c1ccc2c(c1)OC(F)(F)O2)C(=O)Nc1ccc2c(c1)OC(F)(F)O2` [Compound 52]: the MIC came out at 3.13 µM (≈ 2.13 µg/mL).

With `COc1ccc(NC(=O)[C@H](CC(C)C)ONC(=O)[C@@H](COCc2ccccc2)ONC(=O)c2cc(C(F)(F)F)cc(C(F)(F)F)c2)cc1` [Compound 29], the MIC is 6.25 µM (≈ 4.29 µg/mL).

With `CC(C)C[C@H](ONC(=O)[C@@H](COCc1ccccc1)ONC(=O)c1cc(C(F)(F)F)cc(C(F)(F)F)c1)C(=O)Nc1ccc(N2CCOCC2)cc1` [Compound 33], the MIC was over 12.5 µM.

For the molecule `CC(C)(C)OC(=O)[C@@H](COCc1ccccc1)ONC(=O)[C@@H](COCc1ccccc1)ONC(=O)c1cc(C(F)(F)F)cc(C(F)(F)F)c1` [Compound 4], the MIC was over 12.5 µM.

Consider `CC(C)(C)OC(=O)[C@@H](COCc1ccccc1)ONC(=O)c1cc(C(F)(F)F)cc(C(F)(F)F)c1` [Compound 1], for which the MIC was found to be 12.5 µM (≈ 6.34 µg/mL).

On to `O=C(O)C[C@@H](ONC(=O)[C@@H](COCc1ccccc1)ONC(=O)c1cc(C(F)(F)F)cc(C(F)(F)F)c1)C(=O)Nc1ccccc1` [Compound 18], for which the MIC was over 12.5 µM.

Turning to `CC(C)C[C@H](ONC(=O)[C@@H](COCc1ccccc1)ONC(=O)c1cc(C(F)(F)F)cc(C(F)(F)F)c1)C(=O)Nc1ccc(C#N)cc1` [Compound 37], the MIC came to 6.25 µM (≈ 4.25 µg/mL).

As to `Cc1ccc(S(=O)(=O)NO[C@H](COCc2ccccc2)C(=O)NO[C@@H](CC(C)C)C(=O)Nc2ccc3c(c2)OC(F)(F)O3)cc1` [Compound 53], the MIC is over 12.5 µM.

Turning to `CC(C)C[C@H](ONC(=O)[C@@H](COCc1ccccc1)ONC(=O)c1cc(C(F)(F)F)cc(C(F)(F)F)c1)C(=O)NC1CCCCC1` [Compound 22], the MIC is over 12.5 µM.

With `CC(C)(C)OC[C@@H](ONC(=O)[C@@H](COCc1ccccc1)ONC(=O)c1cc(C(F)(F)F)cc(C(F)(F)F)c1)C(=O)Nc1ccccc1` [Compound 13], the MIC was 6.25 µM (≈ 4.29 µg/mL).

As to `Cc1cc(C)cc(NC(=O)[C@H](CC(C)C)ONC(=O)[C@@H](COCc2ccccc2)ONC(=O)c2cc(C(F)(F)F)cc(C(F)(F)F)c2)c1` [Compound 31], the MIC turned out to be 3.13 µM (≈ 2.14 µg/mL).

For `Cc1noc(C)c1C(=O)NO[C@H](COCc1ccccc1)C(=O)NO[C@@H](CC(C)C)C(=O)Nc1ccc2c(c1)OC(F)(F)O2` [Compound 50], the MIC is over 12.5 µM.

On to `CC(C)C[C@@H](ONC(=O)[C@@H](COCc1ccccc1)ONC(=O)c1cc(C(F)(F)F)cc(C(F)(F)F)c1)C(=O)Nc1ccccc1` [Compound 9], for which the MIC was determined as 3.13 µM (≈ 2.05 µg/mL).

For the molecule `O=C(NO[C@H](COCc1ccccc1)C(=O)NO[C@@H](Cc1ccccc1)C(=O)Nc1ccccc1)c1cc(C(F)(F)F)cc(C(F)(F)F)c1` [Compound 11], the MIC stood at 3.13 µM (≈ 2.16 µg/mL).

On to `CC(C)C[C@H](ONC(=O)[C@@H](COCc1ccccc1)ONS(=O)(=O)c1ccc(C(F)(F)F)cc1)C(=O)Nc1ccc2c(c1)OC(F)(F)O2` [Compound 54], for which the MIC is over 12.5 µM.

Take `CC(C)C[C@H](ONC(=O)[C@@H](COCc1ccccc1)ONC(=O)c1cccc2cccnc12)C(=O)Nc1ccc2c(c1)OC(F)(F)O2` [Compound 49]: the MIC is over 12.5 µM.
